According to patent US20150125889A1, “IN VITRO DETECTION OF MICROORGANISMS WITH AZOREDUCTASE ACTIVITY” (BIOMÉRIEUX, priority 2012, published 2015):

Assays:
Experiment in all cases: Reduction of azo substrates over 24 hours at 35° C., microtitration plate (Example 1)
Format in all cases: cell-based
[1] = test system: Staphylococcus aureus; set-up: key to RED (substrate reduced or not): RED indicates whether the substrate is reduced (Y) or not (N); RED indicates whether the substrate is reduced (Y) or not (N); key to Co (growth, absorbance at 660 nm) / Decol (substrate decolourized, decrease in absorbance) / Fluo (fluorescence multiplied by 2 relative to substrate-free control): The symbol “+” means good growth/decolourization/significant increase in fluorescence; The symbol “+/−” means difficult growth; The symbol “−” means that there is no growth/decolourization/significant increase in fluorescence; settings: S. aureus, substrate 35 mg/l
Procedure: (§1) Reduction of the “azo” function of the substrates listed in Table I by the species listed in Table II, each species being represented by a strain, is tested in a microtitration plate.
(§2) The reaction medium consists of: • Trypcase soya broth • Substrate 35 mg/l • 0.5 MacFarland inoculum
(§3) The reduction of the substrate and the growth of the microorganisms are monitored using an Infinite® M200 Tecan microplate reader at 35° C. over 24 hours.
(§4) The growth is monitored by the absorbance at 660 nm and the reduction of the substrates by absorbance and fluorescence at the specific wavelengths indicated in Table III.
(§5) The substrate is considered as reduced by the microorganisms when the substrate is decolourized (monitored by the decrease in absorbance) (Decol) and/or when the fluorescence of the substrate is multiplied by 2 relative to the base fluorescence of a substrate-free control (Fluo). The growth is indicated by Co. The symbol “+” means good growth/decolourization/significant increase in fluorescence. The symbol “+/−” means difficult growth. The symbol “−” means that there is no growth/decolourization/significant increase in fluorescence. RED indicates whether the substrate is reduced (Y) or not (N).

[2] = test system: Kocuria rosea; set-up: key to RED (substrate reduced or not): RED indicates whether the substrate is reduced (Y) or not (N); RED indicates whether the substrate is reduced (Y) or not (N); key to Co (growth, absorbance at 660 nm) / Decol (substrate decolourized, decrease in absorbance) / Fluo (fluorescence multiplied by 2 relative to substrate-free control): The symbol “+” means good growth/decolourization/significant increase in fluorescence; The symbol “+/−” means difficult growth; The symbol “−” means that there is no growth/decolourization/significant increase in fluorescence; settings: K. rosea, substrate 35 mg/l
Procedure: as §1, §2, §3, §4, §5

[3] = test system: Staphylococcus epidermidis; set-up: key to RED (substrate reduced or not): RED indicates whether the substrate is reduced (Y) or not (N); RED indicates whether the substrate is reduced (Y) or not (N); key to Co (growth, absorbance at 660 nm) / Decol (substrate decolourized, decrease in absorbance) / Fluo (fluorescence multiplied by 2 relative to substrate-free control): The symbol “+” means good growth/decolourization/significant increase in fluorescence; The symbol “+/−” means difficult growth; The symbol “−” means that there is no growth/decolourization/significant increase in fluorescence; settings: S. epidermidis, substrate 35 mg/l
Procedure: as §1, §2, §3, §4, §5

[4] = test system: Pseudomonas aeruginosa; set-up: key to RED (substrate reduced or not): RED indicates whether the substrate is reduced (Y) or not (N); RED indicates whether the substrate is reduced (Y) or not (N); key to Co (growth, absorbance at 660 nm) / Decol (substrate decolourized, decrease in absorbance) / Fluo (fluorescence multiplied by 2 relative to substrate-free control): The symbol “+” means good growth/decolourization/significant increase in fluorescence; The symbol “+/−” means difficult growth; The symbol “−” means that there is no growth/decolourization/significant increase in fluorescence; settings: P. aeruginosa, substrate 35 mg/l
Procedure: as §1, §2, §3, §4, §5

[5] = test system: Candida albicans; set-up: key to RED (substrate reduced or not): RED indicates whether the substrate is reduced (Y) or not (N); RED indicates whether the substrate is reduced (Y) or not (N); key to Co (growth, absorbance at 660 nm) / Decol (substrate decolourized, decrease in absorbance) / Fluo (fluorescence multiplied by 2 relative to substrate-free control): The symbol “+” means good growth/decolourization/significant increase in fluorescence; The symbol “+/−” means difficult growth; The symbol “−” means that there is no growth/decolourization/significant increase in fluorescence; settings: substrate 35 mg/l
Procedure: as §1, §2, §3, §4, §5

[6] = test system: Geotrichum candidum; set-up: key to RED (substrate reduced or not): RED indicates whether the substrate is reduced (Y) or not (N); RED indicates whether the substrate is reduced (Y) or not (N); key to Co (growth, absorbance at 660 nm) / Decol (substrate decolourized, decrease in absorbance) / Fluo (fluorescence multiplied by 2 relative to substrate-free control): The symbol “+” means good growth/decolourization/significant increase in fluorescence; The symbol “+/−” means difficult growth; The symbol “−” means that there is no growth/decolourization/significant increase in fluorescence; settings: G. candidum, substrate 35 mg/l
Procedure: as §1, §2, §3, §4, §5

[7] = test system: Escherichia coli; set-up: key to RED (substrate reduced or not): RED indicates whether the substrate is reduced (Y) or not (N); RED indicates whether the substrate is reduced (Y) or not (N); key to Co (growth, absorbance at 660 nm) / Decol (substrate decolourized, decrease in absorbance) / Fluo (fluorescence multiplied by 2 relative to substrate-free control): The symbol “+” means good growth/decolourization/significant increase in fluorescence; The symbol “+/−” means difficult growth; The symbol “−” means that there is no growth/decolourization/significant increase in fluorescence; settings: E. coli, substrate 35 mg/l
Procedure: as §1, §2, §3, §4, §5

[8] = test system: Cronobacter muytjensii; set-up: key to RED (substrate reduced or not): RED indicates whether the substrate is reduced (Y) or not (N); RED indicates whether the substrate is reduced (Y) or not (N); key to Co (growth, absorbance at 660 nm) / Decol (substrate decolourized, decrease in absorbance) / Fluo (fluorescence multiplied by 2 relative to substrate-free control): The symbol “+” means good growth/decolourization/significant increase in fluorescence; The symbol “+/−” means difficult growth; The symbol “−” means that there is no growth/decolourization/significant increase in fluorescence; settings: E. muytjensii, substrate 35 mg/l
Procedure: as §1, §2, §3, §4, §5

[9] = test system: Acinetobacter baumanii; set-up: key to RED (substrate reduced or not): RED indicates whether the substrate is reduced (Y) or not (N); RED indicates whether the substrate is reduced (Y) or not (N); key to Decol (substrate decolourized, decrease in absorbance) / Fluo (fluorescence multiplied by 2 relative to substrate-free control) / Co (growth, absorbance at 660 nm): The symbol “+” means good growth/decolourization/significant increase in fluorescence; The symbol “+/−” means difficult growth; The symbol “−” means that there is no growth/decolourization/significant increase in fluorescence; settings: A. baumannii, substrate 35 mg/l
Procedure: as §1, §2, §3, §4, §5

[10] = test system: Enterococcus faecalis; set-up: key to RED (substrate reduced or not): RED indicates whether the substrate is reduced (Y) or not (N); RED indicates whether the substrate is reduced (Y) or not (N); key to Decol (substrate decolourized, decrease in absorbance) / Fluo (fluorescence multiplied by 2 relative to substrate-free control) / Co (growth, absorbance at 660 nm): The symbol “+” means good growth/decolourization/significant increase in fluorescence; The symbol “+/−” means difficult growth; The symbol “−” means that there is no growth/decolourization/significant increase in fluorescence; settings: E. faecalis, substrate 35 mg/l
Procedure: as §1, §2, §3, §4, §5

Row | SMILES | Co (growth, absorbance at 660 nm) [1] | Decol (substrate decolourized, decrease in absorbance) [1] | Fluo (fluorescence multiplied by 2 relative to substrate-free control) [1] | RED (substrate reduced or not) [1] | Co (growth, absorbance at 660 nm) [2] | Decol (substrate decolourized, decrease in absorbance) [2] | Fluo (fluorescence multiplied by 2 relative to substrate-free control) [2] | Co (growth, absorbance at 660 nm) [3] | Decol (substrate decolourized, decrease in absorbance) [3] | Fluo (fluorescence multiplied by 2 relative to substrate-free control) [3] | RED (substrate reduced or not) [3] | Co (growth, absorbance at 660 nm) [4] | Decol (substrate decolourized, decrease in absorbance) [4] | Fluo (fluorescence multiplied by 2 relative to substrate-free control) [4] | RED (substrate reduced or not) [4] | Co (growth, absorbance at 660 nm) [5] | Decol (substrate decolourized, decrease in absorbance) [5] | Fluo (fluorescence multiplied by 2 relative to substrate-free control) [5] | RED (substrate reduced or not) [5] | Co (growth, absorbance at 660 nm) [6] | other results
1 | O=C(O)c1ccccc1/N=N/c1cc(Br)c(O)c(Br)c1 [2-(4-hydroxy-3,5-dibromophenylazo)benzoic acid] | + | + | + | Y | − | − | − | + | +/− | + | Y | + | − | − | N | + | − | − | N | + | Decol (substrate decolourized, decrease in absorbance) [6]: −; Fluo (fluorescence multiplied by 2 relative to substrate-free control) [6]: +; RED (substrate reduced or not) [6]: Y; Co (growth, absorbance at 660 nm) [7]: +; Decol (substrate decolourized, decrease in absorbance) [7]: −; Fluo (fluorescence multiplied by 2 relative to substrate-free control) [7]: +; RED (substrate reduced or not) [7]: Y; Co (growth, absorbance at 660 nm) [8]: +; Decol (substrate decolourized, decrease in absorbance) [8]: +; Fluo (fluorescence multiplied by 2 relative to substrate-free control) [8]: +; RED (substrate reduced or not) [8]: Y; Co (growth, absorbance at 660 nm) [9]: +; Decol (substrate decolourized, decrease in absorbance) [9]: −; Fluo (fluorescence multiplied by 2 relative to substrate-free control) [9]: +; RED (substrate reduced or not) [9]: Y; Co (growth, absorbance at 660 nm) [10]: +; Decol (substrate decolourized, decrease in absorbance) [10]: +; Fluo (fluorescence multiplied by 2 relative to substrate-free control) [10]: +; RED (substrate reduced or not) [10]: Y
2 | Nc1ccc(/N=N/c2ccc(S(=O)(=O)O)cc2)cc1S(=O)(=O)O [4-aminoazobenzene-3,4′-disulfonic acid, 4-Aminoazobenzene-3,4′-disulfonic acid] | + | − | − | N | − | − | − | + | − | − | N | + | − | − | N | + | + | + | Y | + | Decol (substrate decolourized, decrease in absorbance) [6]: −; Fluo (fluorescence multiplied by 2 relative to substrate-free control) [6]: −; RED (substrate reduced or not) [6]: N; Co (growth, absorbance at 660 nm) [7]: +; Decol (substrate decolourized, decrease in absorbance) [7]: −; Fluo (fluorescence multiplied by 2 relative to substrate-free control) [7]: −; RED (substrate reduced or not) [7]: N; Co (growth, absorbance at 660 nm) [8]: +; Decol (substrate decolourized, decrease in absorbance) [8]: −; Fluo (fluorescence multiplied by 2 relative to substrate-free control) [8]: −; RED (substrate reduced or not) [8]: N; Co (growth, absorbance at 660 nm) [9]: +; Decol (substrate decolourized, decrease in absorbance) [9]: −; Fluo (fluorescence multiplied by 2 relative to substrate-free control) [9]: −; RED (substrate reduced or not) [9]: N; Co (growth, absorbance at 660 nm) [10]: +; Decol (substrate decolourized, decrease in absorbance) [10]: +; Fluo (fluorescence multiplied by 2 relative to substrate-free control) [10]: +; RED (substrate reduced or not) [10]: Y
